Experimental data published in ChEMBL document CHEMBL1201862, “PubChem BioAssay data set” (2004).
Calls of active or inactive are those of the source. Cut-off read from the data, not from the text of the source: actives have a measured IC50 and inactives only a lower limit.

Biological target: Envelope glycoprotein gp160 (Human immunodeficiency virus 1, UniProt Q6QLK5)
Assay: inhibitors of HIV fusion peptide binding, primary screen, biochemical, uHTS, fluorescence dequenching (AID 1986)

Envelope glycoprotein gp160, sequence (Q6QLK5 whole entry, the tested form may be a part): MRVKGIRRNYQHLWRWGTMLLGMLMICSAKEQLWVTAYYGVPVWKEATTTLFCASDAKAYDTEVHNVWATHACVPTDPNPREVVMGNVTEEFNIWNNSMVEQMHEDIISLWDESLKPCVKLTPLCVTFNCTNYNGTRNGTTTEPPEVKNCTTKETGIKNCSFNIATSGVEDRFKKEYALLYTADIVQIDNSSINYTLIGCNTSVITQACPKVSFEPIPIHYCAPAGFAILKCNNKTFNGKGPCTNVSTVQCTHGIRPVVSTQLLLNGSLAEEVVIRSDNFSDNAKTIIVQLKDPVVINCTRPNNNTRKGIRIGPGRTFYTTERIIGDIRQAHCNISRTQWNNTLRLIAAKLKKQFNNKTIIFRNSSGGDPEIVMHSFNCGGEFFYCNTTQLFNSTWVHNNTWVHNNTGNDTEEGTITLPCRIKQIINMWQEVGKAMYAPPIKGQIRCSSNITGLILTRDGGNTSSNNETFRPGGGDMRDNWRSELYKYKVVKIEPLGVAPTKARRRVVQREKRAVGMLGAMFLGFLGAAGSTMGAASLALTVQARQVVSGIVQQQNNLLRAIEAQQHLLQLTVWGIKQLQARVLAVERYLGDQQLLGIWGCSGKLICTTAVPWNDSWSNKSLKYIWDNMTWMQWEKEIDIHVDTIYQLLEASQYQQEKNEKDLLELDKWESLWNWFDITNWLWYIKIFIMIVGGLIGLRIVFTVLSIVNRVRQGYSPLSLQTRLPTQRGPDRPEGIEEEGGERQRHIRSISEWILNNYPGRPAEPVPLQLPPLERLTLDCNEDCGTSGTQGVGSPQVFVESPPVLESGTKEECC

O=C1NN(c2ccc(F)c(Cl)c2)C(=O)/C1=C\c1cccc(OC(=O)c2cccs2)c1
IC50: 7.72 µM (active)

O=C(O)Cn1cc(/C=c2/sc3nc4ccccc4n3c2=O)c2ccccc21
IC50: 68.9 µM (active)

CSc1nc(SCC(=O)O)c2sc3nc(-c4ccccc4)c4c(c3c2n1)CCC4
IC50: 16.2 µM (active)
